Measurements as given in the supplement of paper PMC10307832.

Columns and labels:
Assay in all cases: relative viability (nuclei count vs DMSO), 5 days (fraction); higher = more cells survive
201T = test system: 201T
Outline: (§1)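 Relative viability is defined as nuclei in treated wells over nuclei in vehicle wells. Duplicate plates were run and medians reported. Lung cancer cell lines in 1536-well plates were dosed by pin tool one day after seeding, with one drug or with a fixed anchor-drug dose plus five library-drug doses (not always all listed) in √10 steps, and nuclei were counted after 5 days.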

ABC-1 = test system: ABC-1
Outline: as §1

EMC-BAC-2 = test system: EMC-BAC-2
Outline: as §1

EPLC-272H = test system: EPLC-272H
Outline: as §1

HCC-78 = test system: HCC-78
Outline: as §1

LCLC-103H = test system: LCLC-103H
Outline: as §1

LOU-NH91 = test system: LOU-NH91
Outline: as §1

NCI-H1395 = test system: NCI-H1395
Outline: as §1

NCI-H1437 = test system: NCI-H1437
Outline: as §1

NCI-H1651 = test system: NCI-H1651
Outline: as §1

NCI-H1734 = test system: NCI-H1734
Outline: as §1

NCI-H1793 = test system: NCI-H1793
Outline: as §1

NCI-H1915 = test system: NCI-H1915
Outline: as §1

NCI-H1975 = test system: NCI-H1975
Outline: as §1

NCI-H2023 = test system: NCI-H2023
Outline: as §1

NCI-H23 = test system: NCI-H23
Outline: as §1

NCI-H2405 = test system: NCI-H2405
Outline: as §1

NCI-H647 = test system: NCI-H647
Outline: as §1

NCI-H661 = test system: NCI-H661
Outline: as §1

RERF-LC-KJ = test system: RERF-LC-KJ
Outline: as §1

SK-LU-1 = test system: SK-LU-1
Outline: as §1

UMC-11 = test system: UMC-11
Outline: as §1

`Cc1cnc(-c2cnc(NCCNc3ccc(C#N)cn3)nc2-c2ccc(Cl)cc2Cl)[nH]1` + Cc1cc(Nc2cc(N3CCN(C)CC3)nc(Sc3ccc(NC(=O)C4CC4)cc3)n2)n[nH]1 [Tozasertib] (partner 0.1 µM) showed a relative viability (201T; first compound 0.08 µM) of 0.93, a relative viability (201T; first compound 0.8 µM) of 0.904 and a relative viability (201T; first compound 2.53 µM) of 0.884. It also gave a relative viability (ABC-1; first compound 0.08 µM) of 0.213, a relative viability (ABC-1; first compound 0.253 µM) of 0.158 and a relative viability (ABC-1; first compound 0.8 µM) of 0.22. It also gave a relative viability (ABC-1; first compound 2.53 µM) of 0.221, a relative viability (EMC-BAC-2; first compound 0.08 µM) of 0.313 and a relative viability (EMC-BAC-2; first compound 0.253 µM) of 0.261. It also gave a relative viability (EMC-BAC-2; first compound 0.8 µM) of 0.252, a relative viability (EMC-BAC-2; first compound 2.53 µM) of 0.273 and a relative viability (EPLC-272H; first compound 0.08 µM) of 0.321. For the same compound, the relative viability (EPLC-272H; first compound 0.253 µM) was 0.255, the relative viability (EPLC-272H; first compound 0.8 µM) was 0.249 and the relative viability (EPLC-272H; first compound 2.53 µM) was 0.197. The relative viability (HCC-78; first compound 0.08 µM) was 0.482, the relative viability (HCC-78; first compound 0.253 µM) was 0.311 and the relative viability (HCC-78; first compound 0.8 µM) was 0.428. For the same compound, the relative viability (HCC-78; first compound 2.53 µM) was 0.384, the relative viability (LCLC-103H; first compound 0.08 µM) was 0.503 and the relative viability (LCLC-103H; first compound 0.253 µM) was 0.417. For the same compound, the relative viability (LCLC-103H; first compound 0.8 µM) was 0.429, the relative viability (LCLC-103H; first compound 2.53 µM) was 0.426 and the relative viability (LOU-NH91; first compound 0.08 µM) was 0.648. It also gave a relative viability (LOU-NH91; first compound 0.253 µM) of 0.605, a relative viability (LOU-NH91; first compound 0.8 µM) of 0.656 and a relative viability (LOU-NH91; first compound 2.53 µM) of 0.633. For the same compound, the relative viability (NCI-H1395; first compound 0.08 µM) was 0.778, the relative viability (NCI-H1395; first compound 0.253 µM) was 0.856 and the relative viability (NCI-H1395; first compound 0.8 µM) was 0.872. The relative viability (NCI-H1395; first compound 2.53 µM) was 0.756, the relative viability (NCI-H1437; first compound 0.08 µM) was 0.456 and the relative viability (NCI-H1437; first compound 0.253 µM) was 0.444. It also gave a relative viability (NCI-H1437; first compound 0.8 µM) of 0.431, a relative viability (NCI-H1437; first compound 2.53 µM) of 0.371 and a relative viability (NCI-H1651; first compound 0.08 µM) of 0.7. For the same compound, the relative viability (NCI-H1651; first compound 0.253 µM) was 0.648, the relative viability (NCI-H1651; first compound 0.8 µM) was 0.682 and the relative viability (NCI-H1651; first compound 2.53 µM) was 0.565. For the same compound, the relative viability (NCI-H1734; first compound 0.08 µM) was 0.314, the relative viability (NCI-H1734; first compound 0.253 µM) was 0.253 and the relative viability (NCI-H1734; first compound 0.8 µM) was 0.261. The relative viability (NCI-H1734; first compound 2.53 µM) was 0.247, the relative viability (NCI-H1793; first compound 0.08 µM) was 0.347 and the relative viability (NCI-H1793; first compound 0.253 µM) was 0.276. The relative viability (NCI-H1793; first compound 0.8 µM) was 0.257, the relative viability (NCI-H1793; first compound 2.53 µM) was 0.182 and the relative viability (NCI-H1915; first compound 0.08 µM) was 0.404. The relative viability (NCI-H1915; first compound 0.253 µM) was 0.322, the relative viability (NCI-H1915; first compound 0.8 µM) was 0.342 and the relative viability (NCI-H1915; first compound 2.53 µM) was 0.374. For the same compound, the relative viability (NCI-H1975; first compound 0.08 µM) was 0.717, the relative viability (NCI-H1975; first compound 0.253 µM) was 0.659 and the relative viability (NCI-H1975; first compound 0.8 µM) was 0.508. It also gave a relative viability (NCI-H1975; first compound 2.53 µM) of 0.132, a relative viability (NCI-H2023; first compound 0.08 µM) of 0.353 and a relative viability (NCI-H2023; first compound 0.253 µM) of 0.362. For the same compound, the relative viability (NCI-H2023; first compound 0.8 µM) was 0.325, the relative viability (NCI-H2023; first compound 2.53 µM) was 0.181 and the relative viability (NCI-H23; first compound 0.08 µM) was 0.383. For the same compound, the relative viability (NCI-H23; first compound 0.253 µM) was 0.26, the relative viability (NCI-H23; first compound 0.8 µM) was 0.298 and the relative viability (NCI-H23; first compound 2.53 µM) was 0.259. The relative viability (NCI-H2405; first compound 0.08 µM) was 0.764, the relative viability (NCI-H2405; first compound 0.253 µM) was 0.697 and the relative viability (NCI-H2405; first compound 0.8 µM) was 0.714. For the same compound, the relative viability (NCI-H2405; first compound 2.53 µM) was 0.505, the relative viability (NCI-H647; first compound 0.08 µM) was 0.306 and the relative viability (NCI-H647; first compound 0.253 µM) was 0.163. For the same compound, the relative viability (NCI-H647; first compound 0.8 µM) was 0.263, the relative viability (NCI-H647; first compound 2.53 µM) was 0.172 and the relative viability (NCI-H661; first compound 0.08 µM) was 0.361. For the same compound, the relative viability (NCI-H661; first compound 0.253 µM) was 0.378, the relative viability (NCI-H661; first compound 0.8 µM) was 0.363 and the relative viability (NCI-H661; first compound 2.53 µM) was 0.341. The relative viability (RERF-LC-KJ; first compound 0.08 µM) was 0.544, the relative viability (RERF-LC-KJ; first compound 0.253 µM) was 0.436 and the relative viability (RERF-LC-KJ; first compound 0.8 µM) was 0.367. It also gave a relative viability (RERF-LC-KJ; first compound 2.53 µM) of 0.382, a relative viability (SK-LU-1; first compound 0.08 µM) of 0.314 and a relative viability (SK-LU-1; first compound 0.253 µM) of 0.348. It also gave a relative viability (SK-LU-1; first compound 0.8 µM) of 0.426, a relative viability (SK-LU-1; first compound 2.53 µM) of 0.535 and a relative viability (UMC-11; first compound 0.08 µM) of 0.19. For the same compound, the relative viability (UMC-11; first compound 0.253 µM) was 0.191, the relative viability (UMC-11; first compound 0.8 µM) was 0.227 and the relative viability (UMC-11; first compound 2.53 µM) was 0.213.
